The source of these data is ChEMBL document CHEMBL1681682, “Synthesis and hydrolytic evaluation of acid-labile imine-linked cytotoxic isatin model systems” (Bioorg Med Chem, 2011).

This data set can be described thus: Stability of the compound assessed as half life in 1M sodium acetate buffer of pH 4.5 at 37 degC. In kind it is physicochemical.

As a reminder, the half-life is the time in which the quantity being followed falls by half. As for `COC(=O)[C@H](CCCCNC(=O)Cc1cccc(N=C2C(=O)N(Cc3ccc(OC)cc3)c3c(Br)cc(Br)cc32)c1)NC(C)=O` (mixture of isomers), the half-life was found to be 33 min. With `COC(=O)[C@H](CCCCNC(=O)Cc1ccc(N=C2C(=O)N(Cc3ccc(OC)cc3)c3c(Br)cc(Br)cc32)cc1)NC(C)=O` (mixture of isomers), the half-life is 23 min.
